Non-standard residues stand in square brackets, D forms with d. Residues, ends and D or L forms follow the SMILES beside them. *: point of attachment. Daunorubicin = COc1cccc2c1C(=O)c1c(O)c3c(c(O)c1C2=O)C[C@@](O)(C(C)=O)C[C@@H]3O[C@H]1C[C@H](N*)[C@H](O)[C@H](C)O1; Sta = CC(C)C[C@H](N)[C@@H](O)CC(=O)O; pGlu = O=C1CC[C@@H](C(=O)O)N1; Isovaleryl = CC(C)CC(=O)*
Tests used:
carcinoma cell trouase = experiment: Inhibitor profile of carcinoma cell trouase; type: biochemical, human
[1] = Metabolism and clearance of Suc-Leu-Ala-Leu-Dox in mice (plasma, urine); type: in vivo, mouse
Method: Plasma samples of 100 μl were transferred to microcentrifuge tubes (1.5 mL) and an internal standard of daunorubicin (20 μL at 0.5 mg/ml) was added together with acetonitrile (400 μl). The tubes were capped and briefly vortexed followed by centrifugation at 14,000 rpm. 420 μl from each tube was removed and dried in vacuo. Each sample was reconstituted in 65 μl 20 mM aqueous ammonium formate (AF) pH 4.5 buffer containing acetonitrile (20%) prior to analysis by reverse phase liquid chromatography in combination with tandem mass spectrometry (LC MS/MS).
Urine was collected at 2 and 24 hours post administration from pairs of mice in metabolic cages. Urine samples were diluted with AF buffer containing acetonitrile (20%) to give a target analyte concentration within the practical range of the LC MS/MS assay. 30 μl of each diluted sample was placed in a micro centrifuge tube (1.5 ml) and an internal standard of daunorubicin (20 μL at 0.5 mg/ml) was added together with 50 μl of AF buffer containing acetonitrile (20%). Each sample was then analyzed by LC MS/MS.
An Agilent HP1100 HPLC with DAD detector and Chemstation software was coupled to a PE Sciex API 365 mass spectrometer with an electrospray ion source. HPLC was performed on a TSK-Gel Super ODS, […], 4.6×50 mm (TosoHaas) reversed phase column equipped with a […] C18 guard disc (Higgins Analytical) and stainless steel frit (Upchurch Scientific). Chromatography was performed at room temperature. The flow rate was 0.5 ml/min. Injection volume was 50 μl. Gradient elution was performed using a mobile phase of AF buffer with increasing amounts of acetonitrile. The API 365 was operated at 365° C. in a multiple reaction monitoring mode, set to monitor specific analyte parent-daughter ion pairs. Integration of chromatograms was performed by MacQuan software (PE Sciex) and quantitation of each analyte obtained by comparison to previously obtained calibration curves. Daunorubicin was used as an internal standard in all cases.

[2] = Metabolism and clearance of Suc-Met-Ala-Leu-Dox in mice (plasma, urine); type: in vivo, mouse
Method: Plasma samples were obtained at 1 or 4 hours, and urine was collected at 2 and 24 hours post administration. Levels of the prodrug and metabolites were measured by LC-MS with UV detection of doxorubicin.

[3] = tested on: HeLa cell anion exchange fraction (F1), trouase; experiment: Relative cleavage by HeLa cell anion exchange fraction (F1) versus Suc-βAla-Leu-Ala-Leu standard; type: biochemical, human; details: 2 hr at 37° C., 12.5 μg/mL, HeLa F1; relative to Suc-βAla-Leu-Ala-Leu-(Dox or Dnr) standard
Method: Thirty billion commercially produced HeLa Cells (human cervical carcinoma, Computer Cell Culture Ceizter, Seneffe, Belgium) were homogenized with a sonicator and with a Dounce homogenizer in 108 mL of aqueous lysis solution. The lysis solution contained 0.02% w/v Triton X-100, 0.04% w/v sodium azide, and a cocktail of protease inhibitors (2 tablets/50 mL Complete™, EDTA-free tablets, Roche Molecular Biochemicals). The cell homogenate was centrifuged 30 minutes at 4° C. at 5000×g and the pellet was homogenized in a second 108 mL of lysis solution using a Dounce homogenizer and centrifuged as before. The supernatants were combined and centrifuged for 90 min at 145,000×g at 4° C.
A portion of the ultracentrifugation supernatant was diluted 2-fold with a 20 mM triethanolamine-HCl pH 7.2 buffer containing 0.01% (w/v) Triton X-100 and 0.02% (w/v) sodium azide (equilibration buffer). Thirty mL of the resulting solution, corresponding to approximately 180 mg of protein, was loaded at 4° C. on a 2.6×9.4 cm Source™ 15Q (Amersham Pharmacia Biotech) low pressure anion exchange chromatography column (1 ml/minute). The column was then washed with 250 ml of the equilibration buffer at a flow rate of 1 mL/minute. Proteins were eluted in a NaCl linear concentration gradient (0–0.5 M in the equilibration buffer, total volume of the gradient was 1000 ml) at a flow rate of 3 ml/minute. Two-minute fractions were collected and used for enzyme activity determination using βAla-Leu-Ala-Leu-Dox as the substrate. Its transformation into Ala-Leu-Dox was quantified by reverse phase high performance liquid chromatography utilizing fluorescence detection of the anthracycline moiety. The fractions containing the highest activity levels were pooled (fractions #43–46; ˜0.13 M NaCl), supplemented with protease inhibitors (Complete™, EDTA-free tablets, Roche Molecular Biochemicals), and stored as aliquots at −80° C.
Test compounds were incubated for 2 hr at 37° C. at a concentration of 12.5 μg/mL with HeLa cell anion exchange fraction (F1), as prepared in Example 1(c). Following incubation, three volumes of acetonitrile were added to stop the reaction and remove protein from the mixture. The sample was centrifuged at 18,000 g for 5 minutes and 100 μL of supernatant was mixed with 300 μL of water prior to analysis by HPLC. For HPLC analysis 50 μL of sample was injected on a 4.6×50 mm 2μ TSK Super-ODS chromatography column at 40° C. and eluted with a 3 minute linear gradient from 26% to 68% acetonitrile in aqueous 20 mM ammonium acetate pH 4.5 buffer at 2 mL/min. Detection was by fluorescence using an excitation wavelength of 235 nm and an emission wavelength of 560 nm.
the amount of cleavage of each test compound was compared to the amount of a standard Suc-βAla-Leu-Ala-Leu-therapeutic agent conjugate cleaved by F1 under the same conditions. The therapeutic agent in the standard (Dox or Dnr) was the same as in the test compound. Table 3 provides the relative cleavage rates of several tripeptide prodrugs.

in vivo = details: female, ICR, mouse, iv, 100 umol/kg
Method: Plasma was obtained from three individual animals in each group at 5 minutes, 1, 2, 4, or 6 hr.

[4] = after single intravenous 117 mg/kg Suc-Leu-Ala-Leu-Dox
[5] = after single intravenous 120 mg/kg Suc-Met-Ala-Leu-Dox

Row | Compound | inhibition of carcinoma cell trouase (carcinoma cell trouase) | Relative Cleavage % [3] | other results
1 | c1cnc2c(c1)ccc1cccnc12 [1,10-phenanthroline] | inhibited |  | 
2 | COc1cccc2c1C(=O)c1c(O)c3c(c(O)c1C2=O)C[C@@](O)(C(=O)CO)C[C@@H]3O[C@H]1C[C@H](NC(=O)[C@H](CC(C)C)NC(=O)[C@H](C)N)[C@H](O)[C@H](C)O1 [Ala-Leu-Dox] |  |  | Plasma 1 hr, percent of administered dose ([1]; mouse, in vivo, iv, 117 mg/kg): 0.006%; Plasma 4 hr, percent of administered dose ([1]; mouse, in vivo, iv, 117 mg/kg): 0.000%; Urine 2 hr, percent of administered dose ([1]; mouse, in vivo, iv, 117 mg/kg): 0.02%; Urine 24 hr, percent of administered dose ([1]; mouse, in vivo, iv, 117 mg/kg): 0.01%; Plasma 1 hr, percent of administered dose ([2]; mouse, in vivo, iv, 120 mg/kg): 0.002%; Plasma 4 hr, percent of administered dose ([2]; mouse, in vivo, iv, 120 mg/kg): 0.000%; Urine 2 hr, percent of administered dose ([2]; mouse, in vivo, iv, 120 mg/kg): 0.16%; Urine 24 hr, percent of administered dose ([2]; mouse, in vivo, iv, 120 mg/kg): 0.02%
3 | CCCNC(=O)[C@H]1O[C@@H]1C(=O)N[C@H](C(=O)N1CCC[C@H]1C(=O)O)[C@@H](C)CC [CA074] | not |  | 
4 | CC(C)C[C@H](NC(=O)[C@H]1O[C@@H]1C(=O)O)C(=O)NCCCCN=C(N)N [Compound E64, E64] | not |  | 
5 | COc1cccc2c1C(=O)c1c(O)c3c(c(O)c1C2=O)C[C@@](O)(C(=O)CO)C[C@@H]3O[C@H]1C[C@H](NC(=O)[C@@H](N)CC(C)C)[C@H](O)[C@H](C)O1 [Leu-Dox] |  |  | Plasma 1 hr, percent of administered dose [1, 4]: 0.019%; Plasma 4 hr, percent of administered dose [1, 4]: 0.001%; Urine 2 hr, percent of administered dose [1, 4]: 1.53%; Urine 24 hr, percent of administered dose [1, 4]: 0.45%; Plasma 1 hr, percent of administered dose [2, 5]: 0.022%; Plasma 4 hr, percent of administered dose [2, 5]: 0.001%; Urine 2 hr, percent of administered dose [2, 5]: 7.28%; Urine 24 hr, percent of administered dose [2, 5]: 1.25%; plasma level, times higher than Ala-Leu-Dox ([2]; at both 1 and 4 hours after 120 mg/kg Suc-Met-Ala-Leu-Dox): about 10 times
6 | COc1cccc2c1C(=O)c1c(O)c3c(c(O)c1C2=O)C[C@@](O)(C(C)=O)C[C@@H]3O[C@H]1C[C@H](NC(=O)[C@H](CC(C)C)NC(=O)[C@H](C)NC(=O)[C@H](CC(C)C)NC(=O)[C@@H]2CCC(=O)N2)[C@H](O)[C@H](C)O1 [Pyg-Leu-Ala-Leu-Dnr] ([pGlu]LAL-Daunorubicin) |  | 76% | 
7 | COc1cccc2c1C(=O)c1c(O)c3c(c(O)c1C2=O)C[C@@](O)(C(C)=O)C[C@@H]3O[C@H]1C[C@H](NC(=O)[C@H](CC(C)C)NC(=O)[C@H](C)NC(=O)[C@H](CC(C)C)NC(=O)CCC(=O)O)[C@H](O)[C@H](C)O1 [Suc-Leu-Ala-Leu-Dnr] |  | 76% | 
8 | COc1cccc2c1C(=O)c1c(O)c3c(c(O)c1C2=O)CC(O)(C(C)=O)CC3OC1CC(NC(=O)C(CC(C)C)NC(=O)C(C)NC(=O)C(CCSC)NC(=O)CCC(=O)O)C(O)C(C)O1 (stereo not drawn) [Suc-Met-Ala-Leu-Dnr] |  | 69% | 
9 | CCC(C)C(NC(=O)CNC(=O)C(CCSC)NC(=O)CCC(=O)O)C(=O)NC1CC(OC2CC(O)(C(C)=O)Cc3c(O)c4c(c(O)c32)C(=O)c2c(OC)cccc2C4=O)OC(C)C1O (stereo not drawn) [Suc-Met-Gly-Ile-Dnr] |  | 46% | 
10 | COc1cccc2c1C(=O)c1c(O)c3c(c(O)c1C2=O)CC(O)(C(C)=O)CC3OC1CC(NC(=O)C(CC(C)C)NC(=O)CNC(=O)C(CCSC)NC(=O)CCC(=O)O)C(O)C(C)O1 (stereo not drawn) [Suc-Met-Gly-Leu-Dnr] |  | 55% | 
11 | COc1cccc2c1C(=O)c1c(O)c3c(c(O)c1C2=O)C[C@@](O)(C(C)=O)C[C@@H]3O[C@H]1C[C@H](NC(=O)[C@H](Cc2ccccc2)NC(=O)CNC(=O)[C@H](CCSC)NC(=O)CCC(=O)O)[C@H](O)[C@H](C)O1 [Suc-Met-Gly-Phe-Dnr] |  | 29% | 
12 | CCCCC(NC(=O)CCC(=O)O)C(=O)NCC(=O)NC(Cc1ccccc1)C(=O)NC1CC(OC2CC(O)(C(C)=O)Cc3c(O)c4c(c(O)c32)C(=O)c2c(OC)cccc2C4=O)OC(C)C1O (stereo not drawn) [Suc-Nle-Gly-Phe-Dnr] |  | 17% | 
13 | CCC(C)C(NC(=O)CNC(=O)C(Cc1ccccc1)NC(=O)CCC(=O)O)C(=O)NC1CC(OC2CC(O)(C(C)=O)Cc3c(O)c4c(c(O)c32)C(=O)c2c(OC)cccc2C4=O)OC(C)C1O (stereo not drawn) [Suc-Phe-Gly-Ile-Dnr] |  | 54% | 
14 | COc1cccc2c1C(=O)c1c(O)c3c(c(O)c1C2=O)CC(O)(C(C)=O)CC3OC1CC(NC(=O)C(CC(C)C)NC(=O)CNC(=O)C(Cc2ccccc2)NC(=O)CCC(=O)O)C(O)C(C)O1 (stereo not drawn) [Suc-Phe-Gly-Leu-Dnr] |  | 24% | 
15 | COc1cccc2c1C(=O)c1c(O)c3c(c(O)c1C2=O)CC(O)(C(C)=O)CC3OC1CC(NC(=O)C(Cc2ccccc2)NC(=O)CNC(=O)C(Cc2ccccc2)NC(=O)CCC(=O)O)C(O)C(C)O1 (stereo not drawn) [Suc-Phe-Gly-Phe-Dnr] |  | 12% | 
16 | CCC(C)C(NC(=O)C(C)NC(=O)C(Cc1ccc(O)cc1)NC(=O)CCC(=O)O)C(=O)NC1CC(OC2CC(O)(C(C)=O)Cc3c(O)c4c(c(O)c32)C(=O)c2c(OC)cccc2C4=O)OC(C)C1O (stereo not drawn) [Suc-Tyr-Ala-Ile-Dnr] |  | 25% | 
17 | COc1cccc2c1C(=O)c1c(O)c3c(c(O)c1C2=O)CC(O)(C(C)=O)CC3OC1CC(NC(=O)C(CC(C)C)NC(=O)C(C)NC(=O)C(Cc2ccc(O)cc2)NC(=O)CCC(=O)O)C(O)C(C)O1 (stereo not drawn) [Suc-Tyr-Ala-Len-Dnr] |  | 77% | 
18 | CC[C@H](C)[C@H](NC(=O)CCNC(=O)CCC(=O)O)C(=O)N[C@@H](C)C(=O)N[C@@H](CC(C)C)C(=O)N[C@H]1C[C@H](O[C@H]2C[C@](O)(C(=O)CO)Cc3c(O)c4c(c(O)c32)C(=O)c2c(OC)cccc2C4=O)O[C@@H](C)[C@H]1O [Suc-βAla-Ile-Ala-Leu-Dox] |  |  | AUC (in vivo): 326 µM·h
19 | [Zn+2] [Zn^2+] |  |  | inhibition of hydrolysis of Suc-βAla-Leu-Ala-Leu-Dox by HeLa cell Fraction 1 (carcinoma cell trouase; 100 μM): completely inhibits
20 | CO[C@@H]1[C@H](OC(=O)/C=C/C=C/C=C/C=C/C(=O)O)CC[C@]2(CO2)[C@H]1[C@@]1(C)O[C@@H]1CC=C(C)C [fumagillin] | not |  | 
21 | CC(=O)N[C@@H](CC(C)C)C(=O)N[C@@H](CC(C)C)C(=O)N[C@H](C=O)CCCNC(=N)N [leupeptin] | not |  | 
22 | CC(C)CC(=O)N[C@H](C(=O)N[C@H](C(=O)N[C@@H](CC(C)C)[C@@H](O)CC(=O)N[C@@H](C)C(=O)N[C@@H](CC(C)C)[C@@H](O)CC(=O)O)C(C)C)C(C)C [pepstatin] (Isovaleryl-VV[Sta]A[Sta]-OH) | not |  | 
23 | aminoethylbenzene-sufonate | not |  | 
24 | aprotinin | not |  | 
